According to ChEMBL document CHEMBL1124001, “Synthesis and antileukemic activity of bis[[(carbamoyl)oxy]methyl]- substituted pyrrolo[2,1-a]isoquinolines, pyrrolo[1,2-a]quinolines, pyrrolo[2,1-a]isobenzazepines, and pyrrolo[1,2-a]benzazepines” (J Med Chem, 1988):

Legend:
[1] = system: Mus musculus; assay: Net log cell kill was determined after injecting 7.5 mg/kg intraperitoneally in CD2F1 mice; type: functional; details: route intraperitoneal
[2] = system: Mus musculus; assay: Net log cell kill was determined after injecting 1.87 mg/kg intraperitoneally in CD2F1 mice; type: functional; details: route intraperitoneal
[3] = system: Mus musculus; assay: Net log cell kill was determined after injecting 15 mg/kg intraperitoneally in CD2F1 mice; type: functional; details: route intraperitoneal
[4] = system: Mus musculus; assay: Body weight change of test animals to that of control was determined after injection at 60 mg/kg intraperitoneally in CD2F1 mice; type: functional; details: route intraperitoneal
[5] = system: Mus musculus; assay: Body weight change of test animals to that of control was determined after injection at 7.5 mg/kg intraperitoneally in CD2F1 mice; type: functional; details: route intraperitoneal
[6] = system: Mus musculus; assay: Net log cell kill was determined after injecting 3.75 mg/kg intraperitoneally in CD2F1 mice; type: functional; details: route intraperitoneal
[7] = system: Mus musculus; assay: Body weight change of test animals to that of control was determined after injection at 1.87 mg/kg intraperitoneally in CD2F1 mice; type: functional; details: route intraperitoneal
[8] = system: Mus musculus; assay: Body weight change of test animals to that of control was determined after injection at 15 mg/kg intraperitoneally in CD2F1 mice; type: functional; details: route intraperitoneal
[9] = system: Mus musculus; assay: Body weight change of test animals to that of control was determined after injection at 3.75 mg/kg intraperitoneally in CD2F1 mice; type: functional; details: route intraperitoneal
[10] = system: Mus musculus; assay: Toxicity day survivors was determined by the ratio of animals survived to that of test animals at 3.75 mg/kg intraperitoneally in CD2F1 mice; 6/6; type: organism-based; parameters: dose 3.75 mg/kg, route intraperitoneal; details: in vivo, ip
[11] = system: Mus musculus; assay: Toxicity day survivors was determined by the ratio of animals survived to that of test animals at 60 mg/kg intraperitoneally in CD2F1 mice; 4/6; type: organism-based; parameters: dose 60 mg/kg, route intraperitoneal; details: in vivo, ip
[12] = system: Mus musculus; assay: Toxicity day survivors was determined by the ratio of animals survived to that of test animals at 1.87 mg/kg intraperitoneally in CD2F1 mice; 6/6; type: organism-based; parameters: dose 1.87 mg/kg, route intraperitoneal; details: in vivo, ip
[13] = system: Mus musculus; assay: Toxicity day survivors was determined by the ratio of animals survived to that of test animals at 15 mg/kg intraperitoneally in CD2F1 mice; 6/6; type: organism-based; parameters: dose 15 mg/kg, route intraperitoneal; details: in vivo, ip
[14] = system: Mus musculus; assay: Ratio of treated to that of untreated tumor-bearing control animals at 7.5 mg/kg intraperitoneally in CD2F1 mice was determined; type: functional; details: route intraperitoneal
[15] = system: Mus musculus; assay: Ratio of treated to that of untreated tumor-bearing control animals at 1.87 mg/kg intraperitoneally in CD2F1 mice was determined; type: functional; details: route intraperitoneal
[16] = system: Mus musculus; assay: Ratio of treated to that of untreated tumor-bearing control animals at 15 mg/kg intraperitoneally in CD2F1 mice was determined; type: functional; details: route intraperitoneal
[17] = system: Mus musculus; assay: Toxicity day survivors was determined by the ratio of animals survived to that of test animals at 7.5 mg/kg intraperitoneally in CD2F1 mice; 6/6; type: organism-based; parameters: dose 7.5 mg/kg, route intraperitoneal; details: in vivo, ip
[18] = system: Mus musculus; assay: Ratio of treated to that of untreated tumor-bearing control animals at 3.75 mg/kg intraperitoneally in CD2F1 mice was determined; type: functional; details: route intraperitoneal
[19] = system: Mus musculus; assay: Net log cell kill was determined after injecting 60 mg/kg intraperitoneally in CD2F1 mice; type: functional; details: route intraperitoneal
[20] = system: Mus musculus; assay: Net log cell kill was determined after injecting 120 mg/kg intraperitoneally in CD2F1 mice; type: functional; details: route intraperitoneal
[21] = system: Mus musculus; assay: Net log cell kill was determined after injecting 240 mg/kg intraperitoneally in CD2F1 mice; type: functional; details: route intraperitoneal
[22] = system: Mus musculus; assay: Net log cell kill was determined after injecting 480 mg/kg intraperitoneally in CD2F1 mice; type: functional; details: route intraperitoneal
[23] = system: Mus musculus; assay: Body weight change of test animals to that of control was determined after injection at 120 mg/kg intraperitoneally in CD2F1 mice; type: functional; details: route intraperitoneal
[24] = system: Mus musculus; assay: Body weight change of test animals to that of control was determined after injection at 240 mg/kg intraperitoneally in CD2F1 mice; type: functional; details: route intraperitoneal
[25] = system: Mus musculus; assay: Body weight change of test animals to that of control was determined after injection at 480 mg/kg intraperitoneally in CD2F1 mice; type: functional; details: route intraperitoneal
[26] = system: Mus musculus; assay: Toxicity day survivors was determined by the ratio of animals survived to that of test animals at 120 mg/kg intraperitoneally in CD2F1 mice; 6/6; type: organism-based; parameters: dose 120 mg/kg, route intraperitoneal; details: in vivo, ip
[27] = system: Mus musculus; assay: Toxicity day survivors was determined by the ratio of animals survived to that of test animals at 240 mg/kg intraperitoneally in CD2F1 mice; 6/6; type: organism-based; parameters: dose 240 mg/kg, route intraperitoneal; details: in vivo, ip
[28] = system: Mus musculus; assay: Toxicity day survivors was determined by the ratio of animals survived to that of test animals at 480 mg/kg intraperitoneally in CD2F1 mice; 6/6; type: organism-based; parameters: dose 480 mg/kg, route intraperitoneal; details: in vivo, ip
[29] = system: Mus musculus; assay: Ratio of treated to that of untreated tumor-bearing control animals at 480 mg/kg intraperitoneally in CD2F1 mice was determined; type: functional; details: route intraperitoneal
[30] = system: Mus musculus; assay: Ratio of treated to that of untreated tumor-bearing control animals at 60 mg/kg intraperitoneally in CD2F1 mice was determined; type: functional; details: route intraperitoneal
[31] = system: Mus musculus; assay: Ratio of treated to that of untreated tumor-bearing control animals at 120 mg/kg intraperitoneally in CD2F1 mice was determined; type: functional; details: route intraperitoneal
[32] = system: Mus musculus; assay: Toxicity day survivors was determined by the ratio of animals survived to that of test animals at 60 mg/kg intraperitoneally in CD2F1 mice; 6/6; type: organism-based; parameters: dose 60 mg/kg, route intraperitoneal; details: in vivo, ip
[33] = system: Mus musculus; assay: Ratio of treated to that of untreated tumor-bearing control animals at 240 mg/kg intraperitoneally in CD2F1 mice was determined; type: functional; details: route intraperitoneal
[34] = system: Mus musculus; assay: Net log cell kill was determined after injecting 30 mg/kg intraperitoneally in CD2F1 mice; type: functional; details: route intraperitoneal
[35] = system: Mus musculus; assay: Body weight change of test animals to that of control was determined after injection at 30 mg/kg intraperitoneally in CD2F1 mice; type: functional; details: route intraperitoneal
[36] = system: Mus musculus; assay: Toxicity day survivors was determined by the ratio of animals survived to that of test animals at 30 mg/kg intraperitoneally in CD2F1 mice; 6/6; type: organism-based; parameters: dose 30 mg/kg, route intraperitoneal; details: in vivo, ip
[37] = organism: Mus musculus; assay: Ratio of treated to that of untreated tumor-bearing control animals was determined; type: functional
[38] = system: Mus musculus; assay: Ratio of treated to that of untreated tumor-bearing control animals 30 mg/kg intraperitoneally in CD2F1 mice was determined; type: functional; details: route intraperitoneal

| SMILES | KE [3] | T-C [4] [g] | T-C [8] [g] | TDS [13] | T/C [16] [%] | KE [19] | KE [20] | KE [21] | T-C [23] [g] | T-C [24] [g] | TDS [26] | TDS [27] | T/C [31] [%] | TDS [32] | T/C [33] [%] | further results |
| --- | --- | --- | --- | --- | --- | --- | --- | --- | --- | --- | --- | --- | --- | --- | --- | --- |
| CNC(=O)OCc1c(COC(=O)NC)c2n(c1C)-c1ccc(OC)cc1CCC2 | 0.27 | -2.8 | -1.2 | 6 | 144 | – | – | – | – | – | – | – | – | – | – | KE [1]: 0.55; KE [2]: -0.74; T-C [5]: -1.3 g; KE [6]: -0.06; T-C [7]: -1 g; T-C [9]: -1.6 g; TDS [10]: 6; TDS [11]: 4; TDS [12]: 6; T/C [14]: 147%; T/C [15]: 125%; TDS [17]: 6; T/C [18]: 135% |
| CC(C)NC(=O)OCc1cn2c(c1COC(=O)NC(C)C)-c1cc(Cl)c(Cl)cc1CC2 | – | -0.4 | – | – | – | -1.54 | -0.68 | 0.1 | -2.2 | -2.3 | 6 | 6 | 130 | 6 | 137 | KE [22]: 5.05; T-C [25]: -3.6 g; TDS [28]: 6; T/C [29]: 185%; T/C [30]: 86% |
| COc1ccc2c(ccc3c(COC(=O)NC(C)C)c(COC(=O)NC(C)C)c(C)n32)c1 | -1.47 | 0.1 | -0.1 | 6 | 109 | -0.3 | -0.12 | 1.19 | -0.6 | -3.5 | 6 | 6 | 131 | 6 | 154 | KE [34]: -0.42; T-C [35]: 0 g; TDS [36]: 6; T/C [37]: 128%; T/C [38]: 112% |
